Experimental data published in patent publication US12492173B2, “Herbicidal substituted N-tetrazolyl aryl carboxamides” (Bayer Aktiengesellschaft, priority 2019, dated 2025).

Tests used:
Assay type in all cases: in vivo
Veronica persica [1] = experiment: Pre-emergence herbicidal action, VERPE; design: key to Herbicidal action against VERPE: % activity: 100 = plants have died, 0 = like control plants; conditions: for herbicidal action VERPE: dosage 320 g/ha
Excerpt: (§1) 1. Pre-Emergence Herbicidal Action Against Harmful Plants Seeds of monocotyledonous and dicotyledonous weed plants and crop plants are laid out in sandy loam soil in wood-fiber pots and covered with soil. The compounds of the invention, formulated in the form of wettable powders (WP) or as emulsion concentrates (EC), are then applied to the surface of the covering soil in the form of an aqueous suspension or emulsion at a water application rate equating to 600 to 800 l/ha, with addition of 0.2% wetting agent. After the treatment, the pots are placed in a greenhouse and kept under good growth conditions for the trial plants. The damage to the test plants is scored visually after a test period of 3 weeks by comparison with untreated controls (herbicidal activity in percent (%): 100% activity=the plants have died, 0% activity=like control plants). […] The tables below illustrate, in an exemplary manner, the […] herbicidal action of the compounds according to the invention, the herbicidal activity being stated in percent. [table] In the experiments that follow, herbicidal action of numerous inventive compounds and the known compounds that are structurally closest from D1 (WO 2012/028579 A1) and D2 (WO 2018/202535 A1) were compared under the above-specified conditions by the pre-emergence and post-emergence method. The example numbers given in the tables relate to the compounds disclosed in the respective documents. In addition to the compounds disclosed in D1 and D2, the following compounds V-1 to V-14 that are encompassed by D1 or D2 but are not compounds specified therein were used in the comparative experiments: • V-1: 2-(methylsulfanyl)-3-(methylsulfinyl)-N-(1-methyl-1H-tetrazol-5-yl)-4-(trifluoromethyl)benzamide • V-2: 2-(methylsulfanyl)-3-(methylsulfonyl)-N-(1-methyl-1H-tetrazol-5-yl)-4-(trifluoromethyl)benzamide • V-3: 2,3-bis(ethylsulfanyl)-N-(1-methyl-1H-tetrazol-5-yl)-4-(trifluoromethyl)benzamide • V-4: 2-chloro-3-(ethylsulfanyl)-N-(1-methyl-1H-tetrazol-5-yl)-4-(trifluoromethyl)benzamide • V-5: 2-chloro-4-iodo-3-(methylsulfanyl)-N-(1-methyl-1H-tetrazol-5-yl)benzamide • V-6: 2-chloro-4-iodo-3-(methylsulfinyl)-N-(1-methyl-1H-tetrazol-5-yl)benzamide • V-7: 2-chloro-4-iodo-3-(methylsulfonyl)-N-(1-methyl-1H-tetrazol-5-yl)benzamide • V-8: 2-bromo-3-(methylsulfanyl)-N-(1-methyl-1H-tetrazol-5-yl)-4-(trifluoromethyl)benzamide • V-9: 2-bromo-3-(methylsulfinyl)-N-(1-methyl-1H-tetrazol-5-yl)-4-(trifluoromethyl)benzamide • V-10: 2-bromo-3-(methylsulfonyl)-N-(1-methyl-1H-tetrazol-5-yl)-4-(trifluoromethyl)benzamide • V-11: 2-bromo-3-(ethylsulfanyl)-N-(1-methyl-1H-tetrazol-5-yl)-4-(trifluoromethyl)benzamide • V-12: 2-bromo-3-(ethylsulfinyl)-N-(1-methyl-1H-tetrazol-5-yl)-4-(trifluoromethyl)benzamide • V-13: 2-bromo-3-(ethylsulfonyl)-N-(1-methyl-1-1H-tetrazol-5-yl)-4-(trifluoromethyl)benzamide • V-14: 2-cyclopropyl-3-(ethylsulfanyl)-N-(1-methyl-1H-tetrazol-5-yl)-4-(trifluoromethyl)benzamide Herbicidal Pre-Emergence Action: […]

Amaranthus retroflexus [2] = experiment: Post-emergence herbicidal action, AMARE; design: key: % herbicidal action vs untreated; 100 = plants died, 0 = like control; conditions: post-emergence, dosage 80 g/ha
Procedure: (§2) [table] 2. Post-Emergence Herbicidal Action Against Harmful Plants Seeds of monocotyledonous and dicotyledonous weed and crop plants are laid out in sandy loam soil in wood-fiber pots, covered with soil and cultivated in a greenhouse under good growth conditions. 2 to 3 weeks after sowing, the test plants are treated at the one-leaf stage. The compounds of the invention, formulated in the form of wettable powders (WP) or as emulsion concentrates (EC), are then sprayed onto the green parts of the plants in the form of an aqueous suspension or emulsion at a water application rate equating to 600 to 800 l/ha, with addition of 0.2% wetting agent. After the test plants have been left to stand in the greenhouse under optimal growth conditions for about 3 weeks, the action of the preparations is assessed visually in comparison to untreated controls (herbicidal action in percent (%): 100% activity=the plants have died, 0% activity=like control plants). […] The tables below illustrate, in an exemplary manner, the post-emergence herbicidal action of the compounds according to the invention, the herbicidal activity being stated in percent. In the experiments that follow, herbicidal action of numerous inventive compounds and the known compounds that are structurally closest from D1 (WO 2012/028579 A1) and D2 (WO 2018/202535 A1) were compared under the above-specified conditions by the pre-emergence and post-emergence method. The example numbers given in the tables relate to the compounds disclosed in the respective documents. In addition to the compounds disclosed in D1 and D2, the following compounds V-1 to V-14 that are encompassed by D1 or D2 but are not compounds specified therein were used in the comparative experiments: • V-1: 2-(methylsulfanyl)-3-(methylsulfinyl)-N-(1-methyl-1H-tetrazol-5-yl)-4-(trifluoromethyl)benzamide • V-2: 2-(methylsulfanyl)-3-(methylsulfonyl)-N-(1-methyl-1H-tetrazol-5-yl)-4-(trifluoromethyl)benzamide • V-3: 2,3-bis(ethylsulfanyl)-N-(1-methyl-1H-tetrazol-5-yl)-4-(trifluoromethyl)benzamide • V-4: 2-chloro-3-(ethylsulfanyl)-N-(1-methyl-1H-tetrazol-5-yl)-4-(trifluoromethyl)benzamide • V-5: 2-chloro-4-iodo-3-(methylsulfanyl)-N-(1-methyl-1H-tetrazol-5-yl)benzamide • V-6: 2-chloro-4-iodo-3-(methylsulfinyl)-N-(1-methyl-1H-tetrazol-5-yl)benzamide • V-7: 2-chloro-4-iodo-3-(methylsulfonyl)-N-(1-methyl-1H-tetrazol-5-yl)benzamide • V-8: 2-bromo-3-(methylsulfanyl)-N-(1-methyl-1H-tetrazol-5-yl)-4-(trifluoromethyl)benzamide • V-9: 2-bromo-3-(methylsulfinyl)-N-(1-methyl-1H-tetrazol-5-yl)-4-(trifluoromethyl)benzamide • V-10: 2-bromo-3-(methylsulfonyl)-N-(1-methyl-1H-tetrazol-5-yl)-4-(trifluoromethyl)benzamide • V-11: 2-bromo-3-(ethylsulfanyl)-N-(1-methyl-1H-tetrazol-5-yl)-4-(trifluoromethyl)benzamide • V-12: 2-bromo-3-(ethylsulfinyl)-N-(1-methyl-1H-tetrazol-5-yl)-4-(trifluoromethyl)benzamide • V-13: 2-bromo-3-(ethylsulfonyl)-N-(1-methyl-1-1H-tetrazol-5-yl)-4-(trifluoromethyl)benzamide • V-14: 2-cyclopropyl-3-(ethylsulfanyl)-N-(1-methyl-1H-tetrazol-5-yl)-4-(trifluoromethyl)benzamide Herbicidal Pre-Emergence Action: […]

Echinochloa crus-galli [3] = experiment: Pre-emergence herbicidal action, ECHCG; conditions: for herbicidal action ECHCG: dosage 320 g/ha
Excerpt: as §1

Polygonum convolvulus [4] = experiment: Pre-emergence herbicidal action, POLCO; conditions: for herbicidal action POLCO: dosage 320 g/ha
Excerpt: as §1

Stellaria media [5] = experiment: Post-emergence herbicidal action, STEME; design: key: % herbicidal action vs untreated; 100 = plants died, 0 = like control; conditions: post-emergence, dosage 80 g/ha
Procedure: as §2

Matricaria inodora [6] = experiment: Pre-emergence herbicidal action, MATIN; conditions: dosage 320 g/ha
Excerpt: as §1

Amaranthus retroflexus [7] = experiment: Pre-emergence herbicidal action, AMARE; design: key to Herbicidal action against AMARE: % activity: 100 = plants have died, 0 = like control plants; conditions: for herbicidal action AMARE: dosage 320 g/ha
Excerpt: as §1

Polygonum convolvulus [8] = experiment: Post-emergence herbicidal action, POLCO; conditions: post-emergence, dosage 80 g/ha
Procedure: as §2

Veronica persica [9] = experiment: Post-emergence herbicidal action, VERPE; design: key: % herbicidal action vs untreated; 100 = plants died, 0 = like control; conditions: post-emergence, dosage 80 g/ha
Procedure: as §2

Stellaria media [10] = experiment: Pre-emergence herbicidal action, STEME; design: key to Herbicidal action against STEME: % activity: 100 = plants have died, 0 = like control plants; conditions: for herbicidal action STEME: dosage 320 g/ha
Excerpt: as §1

Viola tricolor [11] = experiment: Post-emergence herbicidal action, VIOTR; design: key: % herbicidal action vs untreated; 100 = plants died, 0 = like control; conditions: post-emergence, dosage 80 g/ha
Procedure: as §2

Abutilon theophrasti [12] = experiment: Post-emergence herbicidal action, ABUTH; design: key: % herbicidal action vs untreated; 100 = plants died, 0 = like control; conditions: post-emergence, dosage 80 g/ha
Procedure: as §2

Pharbitis purpurea = experiment: Post-emergence herbicidal action, PHBPU; conditions: post-emergence, dosage 80 g/ha
Procedure: as §2

Echinochloa crus-galli [13] = experiment: Post-emergence herbicidal action, ECHCG; design: key: % herbicidal action vs untreated; 100 = plants died, 0 = like control; conditions: post-emergence, dosage 80 g/ha
Procedure: as §2

Viola tricolor [14] = experiment: Pre-emergence herbicidal action, VIOTR; conditions: dosage 320 g/ha
Excerpt: as §1

Matricaria inodora [15] = experiment: Post-emergence herbicidal action, MATIN; design: key: % herbicidal action vs untreated; 100 = plants died, 0 = like control; conditions: post-emergence, dosage 80 g/ha
Procedure: as §2

Setaria viridis [16] = experiment: Pre-emergence herbicidal action, SETVI; design: key to Herbicidal action against SETVI: % activity: 100 = plants have died, 0 = like control plants; conditions: for herbicidal action SETVI: dosage 320 g/ha
Excerpt: as §1

Setaria viridis [17] = experiment: Post-emergence herbicidal action, SETVI; design: key: % herbicidal action vs untreated; 100 = plants died, 0 = like control; conditions: post-emergence, dosage 80 g/ha
Procedure: as §2

Avena fatua = experiment: Post-emergence herbicidal action, AVEFA; design: key: % herbicidal action vs untreated; 100 = plants died, 0 = like control; conditions: post-emergence, dosage 80 g/ha
Procedure: as §2

Abutilon theophrasti [18] = experiment: Pre-emergence herbicidal action, ABUTH; conditions: dosage 320 g/ha
Excerpt: as §1

[19] = comparative experiment, 20 g of a.i./ha

SMILES	herbicidal action VERPE (Veronica persica [1])	Herbicidal action against AMARE (Amaranthus retroflexus [2])	herbicidal action ECHCG (Echinochloa crus-galli [3])	herbicidal action POLCO (Polygonum convolvulus [4])	Herbicidal action against STEME (Stellaria media [5])	herbicidal action MATIN (Matricaria inodora [6])	herbicidal action AMARE (Amaranthus retroflexus [7])	Herbicidal action against POLCO (Polygonum convolvulus [8])	Herbicidal action against VERPE (Veronica persica [9])	herbicidal action STEME (Stellaria media [10])	Herbicidal action against VIOTR (Viola tricolor [11])	Herbicidal action against ABUTH (Abutilon theophrasti [12])	Herbicidal action against PHBPU (Pharbitis purpurea)	Herbicidal action against ECHCG (Echinochloa crus-galli [13])	herbicidal action VIOTR (Viola tricolor [14])	Herbicidal action against MATIN (Matricaria inodora [15])	herbicidal action SETVI (Setaria viridis [16])	Herbicidal action against SETVI (Setaria viridis [17])	herbicidal action ABUTH (Abutilon theophrasti [18])	other results
CCS(=O)(=O)Cc1c(C(F)F)ccc(C(=O)Nc2nnnn2C)c1S(=O)(=O)CC [Example 1-229]	100%	80	100%	100%	100	90%	100%	80	90	100%	90	100	80	90	100%					
CCn1nnnc1NC(=O)c1ccc(C)c(CS(C)(=O)=O)c1Cl [Example 2-289]	90%	100	100%	80%	100	100%	100%	80	90	90%	80		90	100		100	100%	100		
CCCn1nnnc1NC(=O)c1ccc(S(C)(=O)=O)c(C[S+](C)[O-])c1C (stereo not drawn) [Example 3-38]	100%	100		80%	100	100%	90%		100	90%	100	90		90	100%	80		80		
CCCn1nnnc1NC(=O)c1ccc(C(F)F)c(C[S+](C)[O-])c1C (stereo not drawn) [Example 3-108]	90%	80	90%		100	100%	100%		100		100		100	80	100%	90	90%		100%	Herbicidal action against AVEFA (Avena fatua): 80
CCCn1nnnc1NC(=O)c1ccc(C)c(CS(C)(=O)=O)c1Cl [Example 3-289]	90%	90	100%	80%	90	100%	100%		90			80		90		100			80%	
Cn1nnnc1NC(=O)c1ccc(I)c(S(C)(=O)=O)c1Cl [Example V-7, 2-chloro-4-iodo-3-(methylsulfonyl)-N-(1-methyl-1H-tetrazol-5-yl)benzamide, reference compound]																				Herbicidal action against VERPE (Veronica persica [1]; [19]): 40; pest or weed control at 20 g/ha (Echinochloa crus-galli [3]; Echinochloa crus-galli, 504 h, comparative experiment, 20 g of a.i./ha, read-out: Herbicidal action against ECHCG): 10%; Herbicidal action against POLCO (Polygonum convolvulus [4]; [19]): 0; Herbicidal action against SETVI (Setaria viridis [16]; [19]): 0; Herbicidal action against AMARE (Amaranthus retroflexus [7]; [19]): 30; Herbicidal action against STEME (Stellaria media [10]; [19]): 0
